Reference: patent publication US12239643B2, “Therapeutic agent for inflammatory diseases, autoimmune diseases, fibrotic diseases, and cancer diseases” (MEIJI SEIKA PHARMA CO., LTD., priority 2018, dated 2025)

Each compound was assayed on PDE4 (assay: Evaluation of PDE4 inhibitory activity, scintillation proximity assay). Conditions: scintillation proximity assay; class symbols of Evaluation 1; read-out: PDE4 Inhibitory Activity (concentration for the inhibition rate of 50%, IC50), Evaluation 1.
Assay type: biochemical
Experimental: The BDE4 inhibitory activity was measured using scintillation proximity assay (SPA) as follows. First, a test compound dissolved in dimethyl sulfoxide was diluted 1:10 in reaction buffer solution which contained 50 mM of Tris-HCl with pH 7.4, 8.3 mM of MgCl2, 1.7 mM of EGTA, and 3 mg/mL of bovine serum albumin (BSA). Then, 10 μL of the diluted solution was added in a 96-well assay plate. Moreover, 50 μL of PDE4 (enzyme preparation) diluted 1:375 in the reaction buffer solution was added, and then 40 μL of [2,8-^3H]-adenosine-3′,5′-cyclic phosphate triethylammonium salt diluted 1:1000 in the reaction buffer solution was added. The mixture was allowed to stand at room temperature for 120 minutes. Thereafter, […] of RNA binding YSi-SPA beads suspension containing ZnSO4 was added and the mixture was allowed to stand at room temperature for 15 minutes, followed by adsorption of the enzyme reaction product to the beads. After that, the radioactivity was measured using a liquid scintillation counter for a 96-well plate. The mixture without the enzyme preparation added but only the reaction buffer solution added is a blank, and the mixture with the enzyme preparation added and only dimethyl sulfoxide added instead of the test compound is a control.
In addition, the PDE4 inhibitory activity (concentration that inhibits PDE4 activity by 50%=concentration for the inhibition rate of 50% (IC50)) of the test compound was calculated from the inhibition curves based on the inhibition rates for various concentrations of the test compound.

Row | Structure (SMILES) | IC50 [nM]
1 | C[S+]([O-])c1cc(-c2nccs2)c2oc(N3CC4CC(C3)N4)nc2c1 (centres unmarked) [Example 43, 2-(3,6-Diazabicyclo[3.1.1]heptan-3-yl)-5-(methylsulfinyl)-7-(thiazol-2-yl)benzo[d]oxazole] | < 100
2 | C[S+]([O-])c1cc(-c2nccs2)c2oc(N3CC4CCCC(C3)N4)nc2c1 (centres unmarked) [Example 44, 2-(3,9-Diazabicyclo[3.3.1]nonan-3-yl)-5-(methylsulfinyl)-7-(thiazol-2-yl)benzo[d]oxazole] | < 100
3 | CS(=O)(=O)c1cc(-c2nccs2)c2oc(N3CC4CCC(C3)N4)nc2c1 [Example 45, 2-(3,8-Diazabicyclo[3.2.1]octan-3-yl)-5-(methylsulfonyl)-7-(thiazol-2-yl)benzo[d]oxazole] | < 100
4 | CS(=O)(=O)c1cc(-c2nccs2)c2oc(N3CC4CC(C3)N4)nc2c1 [Example 46, 2-(3,6-Diazabicyclo[3.1.1]heptan-3-yl)-5-(methylsulfonyl)-7-(thiazol-2-yl)benzo[d]oxazole] | < 100
5 | CS(=O)(=O)c1cc(-c2nccs2)c2oc(N3CC4CCCC(C3)N4)nc2c1 [Example 47, 2-(3,9-Diazabicyclo[3.3.1]nonan-3-yl)-5-(methylsulfonyl)-7-(thiazol-2-yl)benzo[d]oxazole] | < 100
6 | CC(=O)Nc1cc(-c2nccs2)c2oc(N3CC4CCCC(C3)N4)nc2c1 [Example 48, N-(2-(3,9-diazabicyclo[3.3.1]nonan-3-yl)-7-(thiazol-2-yl)benzo[d]oxazol-5-yl)acetamide] | < 100
7 | CC(=O)Nc1cc(-c2nccs2)c2oc(N3CC4CC(C3)N4)nc2c1 [Example 49, N-(2-(3,6-diazabicyclo[3.1.1]heptan-3-yl)-7-(thiazol-2-yl)benzo[d]oxazol-5-yl)acetamide] | 100 to 1000
8 | CC(=O)Nc1cc(-c2nccs2)c2oc(N3CC4CCC(C3)N4)nc2c1 [Example 50, N-(2-(3,8-diazabicyclo[3.2.1]octan-3-yl)-7-(thiazol-2-yl)benzo[d]oxazol-5-yl)acetamide] | < 100
9 | FC(F)(F)c1cc(-c2nccs2)c2oc(N3CC4CCC(C3)N4)nc2c1 [Example 51, 2-(3,8-Diazabicyclo[3.2.1]octan-3-yl)-7-(thiazol-2-yl)-5-(trifluoromethyl)benzo[d]oxazole] | < 100
10 | FC(F)(F)c1cc(-c2nccs2)c2oc(N3CC4CC(C3)N4)nc2c1 [Example 52, 2-(3,6-Diazabicyclo[3.1.1]heptan-3-yl)-7-(thiazol-2-yl)-5-(trifluoromethyl)benzo[d]oxazole] | < 100
11 | FC(F)(F)c1cc(-c2nccs2)c2oc(N3CC4CCCC(C3)N4)nc2c1 [Example 53, 2-(3,9-Diazabicyclo[3.3.1]nonan-3-yl)-7-(thiazol-2-yl)-5-(trifluoromethyl)benzo[d]oxazole] | < 100
12 | FC(F)(F)Oc1cc(-c2nccs2)c2oc(N3CC4CCC(C3)N4)nc2c1 [Example 54, 2-(3,8-Diazabicyclo[3.2.1]octan-3-yl)-7-(thiazol-2-yl)-5-(trifluoromethoxy)benzo[d]oxazole] | < 100
13 | FC(F)(F)Oc1cc(-c2nccs2)c2oc(N3CC4CCCC(C3)N4)nc2c1 [Example 55, 2-(3,9-Diazabicyclo[3.3.1]nonan-3-yl)-7-(thiazol-2-yl)-5-(trifluoromethoxy)benzo[d]oxazole] | < 100
14 | FC(F)(F)Oc1cc(-c2nccs2)c2oc(N3CC4CC(C3)N4)nc2c1 [Example 56, 2-(3,6-Diazabicyclo[3.1.1]heptan-3-yl)-7-(thiazol-2-yl)-5-(trifluoromethoxy)benzo[d]oxazole] | < 100
15 | NS(=O)(=O)c1cc(-c2nccs2)c2oc(N3CC4CCC(C3)N4)nc2c1 [Example 57, 2-(3,8-Diazabicyclo[3.2.1]octan-3-yl)-7-(thiazol-2-yl)benzo[d]oxazole-5-sulfonamide] | < 100
16 | NS(=O)(=O)c1cc(-c2nccs2)c2oc(N3CC4CC(C3)N4)nc2c1 [Example 58, 2-(3,6-Diazabicyclo[3.1.1]heptan-3-yl)-7-(thiazol-2-yl)benzo[d]oxazole-5-sulfonamide] | < 100
17 | NS(=O)(=O)c1cc(-c2nccs2)c2oc(N3CC4CCCC(C3)N4)nc2c1 [Example 59, 2-(3,9-Diazabicyclo[3.3.1]nonan-3-yl)-7-(thiazol-2-yl)benzo[d]oxazole-5-sulfonamide] | < 100
18 | COc1cc(-c2nccs2)c2oc(N3CC4CCC(C3)N4)nc2c1 [Example 60, 2-(3,8-Diazabicyclo[3.2.1]octan-3-yl)-5-methoxy-7-(thiazol-2-yl)benzo[d]oxazole] | < 100
19 | COc1cc(-c2nccs2)c2oc(N3CC4CC(C3)N4)nc2c1 [Example 61, 2-(3,6-Diazabicyclo[3.1.1]heptan-3-yl)-5-methoxy-7-(thiazol-2-yl)benzo[d]oxazole] | < 100

Row | Structure (SMILES) | IC50 [nM]
20 | COc1cc(-c2nccs2)c2oc(N3CC4CCCC(C3)N4)nc2c1 [Example 62, 2-(3,9-Diazabicyclo[3.3.1]nonan-3-yl)-5-methoxy-7-(thiazol-2-yl)benzo[d]oxazole] | < 100
21 | Oc1cc(-c2nccs2)c2oc(N3CC4CCC(C3)N4)nc2c1 [Example 63, 2-(3,8-Diazabicyclo[3.2.1]octan-3-yl)-7-(thiazol-2-yl)benzo[d]oxazol-5-ol] | < 100
22 | Oc1cc(-c2nccs2)c2oc(N3CC4CC(C3)N4)nc2c1 [Example 64, 2-(3,6-Diazabicyclo[3.1.1]heptan-3-yl)-7-(thiazol-2-yl)benzo[d]oxazol-5-ol] | < 100
23 | Oc1cc(-c2nccs2)c2oc(N3CC4CCCC(C3)N4)nc2c1 [Example 65, 2-(3,9-Diazabicyclo[3.3.1]nonan-3-yl)-7-(thiazol-2-yl)benzo[d]oxazol-5-ol] | < 100
24 | FC(F)(F)COc1cc(-c2nccs2)c2oc(N3CC4CCC(C3)N4)nc2c1 [Example 66, 2-(3,8-Diazabicyclo[3.2.1]octan-3-yl)-7-(thiazol-2-yl)-5-(2,2,2-trifluoroethoxy)benzo[d]oxazole] | < 100
25 | FC(F)(F)COc1cc(-c2nccs2)c2oc(N3CC4CC(C3)N4)nc2c1 [Example 67, 2-(3,6-Diazabicyclo[3.1.1]heptan-3-yl)-7-(thiazol-2-yl)-5-(2,2,2-trifluoroethoxy)benzo[d]oxazole] | < 100
26 | CC(C)Oc1cc(-c2nccs2)c2oc(N3CC4CCC(C3)N4)nc2c1 [Example 68, 2-(3,8-Diazabicyclo[3.2.1]octan-3-yl)-5-isopropoxy-7-(thiazol-2-yl)benzo[d]oxazole] | < 100
27 | COCCOc1cc(-c2nccs2)c2oc(N3CC4CCC(C3)N4)nc2c1 [Example 69, 2-(3,8-Diazabicyclo[3.2.1]octan-3-yl)-5-(2-methoxyethoxy)-7-(thiazol-2-yl)benzo[d]oxazole] | < 100
28 | c1csc(-c2cc(OCC3COC3)cc3nc(N4CC5CCC(C4)N5)oc23)n1 [Example 70, 2-(3,8-Diazabicyclo[3.2.1]octan-3-yl)-5-(oxetan-3-ylmethoxy)-7-(thiazol-2-yl)benzo[d]oxazole] | < 100
29 | OCC(CO)COc1cc(-c2nccs2)c2oc(N3CC4CCC(C3)N4)nc2c1 [Example 71, 2-(((2-(3,8-Diazabicyclo[3.2.1]octan-3-yl)-7-(thiazol-2-yl)benzo[d]oxazol-5-yl)oxy)methyl)propane-1,3-diol] | < 100
30 | C=CCOc1cc(-c2nccs2)c2oc(N3CC4CCC(C3)N4)nc2c1 [Example 72, 5-(Allyloxy)-2-(3,8-diazabicyclo[3.2.1]octan-3-yl)-7-(thiazol-2-yl)benzo[d]oxazole] | < 100
31 | N#CCOc1cc(-c2nccs2)c2oc(N3CC4CCC(C3)N4)nc2c1 [Example 73, 2-((2-(3,8-Diazabicyclo[3.2.1]octan-3-yl)-7-(thiazol-2-yl)benzo[d]oxazol-5-yl)oxy)acetonitrile] | < 100
32 | O=C(O)COc1cc(-c2nccs2)c2oc(N3CC4CCC(C3)N4)nc2c1 [Example 74, 2-((2-(3,8-Diazabicyclo[3.2.1]octan-3-yl)-7-(thiazol-2-yl)benzo[d]oxazol-5-yl)oxy)acetic acid] | < 100
33 | COc1ccc(-c2nccs2)c2oc(N3CC4CC(C3)N4)nc12 [Example 76, 2-(3,6-Diazabicyclo[3.1.1]heptan-3-yl)-4-methoxy-7-(thiazol-2-yl)benzo[d]oxazole] | < 100
34 | COc1ccc(-c2nccs2)c2oc(N3CC4CCCC(C3)N4)nc12 [Example 77, 2-(3,9-Diazabicyclo[3.3.1]nonan-3-yl)-4-methoxy-7-(thiazol-2-yl)benzo[d]oxazole] | < 100
35 | Oc1ccc(-c2nccs2)c2oc(N3CC4CCC(C3)N4)nc12 [Example 78, 2-(3,8-Diazabicyclo[3.2.1]octan-3-yl)-7-(thiazol-2-yl)benzo[d]oxazol-4-ol] | < 100
36 | Oc1ccc(-c2nccs2)c2oc(N3CC4CC(C3)N4)nc12 [Example 79, 2-(3,6-Diazabicyclo[3.1.1]heptan-3-yl)-7-(thiazol-2-yl)benzo[d]oxazol-4-ol] | < 100
37 | Oc1ccc(-c2nccs2)c2oc(N3CC4CCCC(C3)N4)nc12 [Example 80, 2-(3,9-Diazabicyclo[3.3.1]nonan-3-yl)-7-(thiazol-2-yl)benzo[d]oxazol-4-ol] | < 100
38 | c1csc(-c2ccc(OC3CCC3)c3nc(N4CC5CCC(C4)N5)oc23)n1 [Example 81, 2-(3,8-Diazabicyclo[3.2.1]octan-3-yl)-4-cyclobutoxy-7-(thiazol-2-yl)benzo[d]oxazole] | < 100
